Consider 20 molecules from patent publication EP3290412A1, “HIV-1 NUCLEOCAPSID INHIBITORS” (Università degli Studi di Siena, priority 2016, dated 2018).

Like-named read-outs stand apart in the source and are kept apart here. Some results are limits rather than exact numbers.

Format in all cases: cell-based
The subject of series [1] is HIV-1 reference strain NL4-3. The series can be described thus: BiCycle assay (MT-2 then TZM-bl cells). Put shortly:
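MT-2 cells were infected with NL4-3 in the presence of five-fold compound dilutions. After 72 h, the supernatant was passed to TZM-bl cells. Two days later, luciferase luminescence was read and IC50 calculated, giving a readout that spans the whole replication cycle.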

For series [2], the system named is HeLa cells. The experiment in a line: HeLa Proliferation assay (CellTiter Glo). Conditions: 72 hours. Put shortly: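 Viability measured with CellTiter Glo after 72 h compound exposure (37 °C, 5% CO2, humidified) of HeLa cells seeded at 2000 per well in 10% FBS DMEM without phenol red and allowed 4 h recovery.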
In general terms: In ATP-based viability assays light output follows the ATP content of the culture.

The subject of series [3] is Peripheral blood mononuclear cells (PBMC). Conditions: human, 7 days. Put shortly:
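Cytotoxicity measured after 7 days of compound exposure by MTS conversion (OD 490 nm, 4 h). The cells were PHA-activated (5 µg/mL, 2 days) donor PBMC, cultured with 20 IU/mL IL-2 at 1x10^5 cells/well. TD50 is the dose killing 50% versus untreated control, read from the dose-mortality curve.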

Where [4] appears, read: Human immunodeficiency virus 1, NL43, TZM-bl, read-out: BiCycle IC50 nM.

In general, IC50 refers to the concentration needed to halve the response being measured. Take `C[C@@H](NC(=O)c1nc(-c2ccc3ccccc3n2)nc(O)c1O)C1CCCCC1` [Compound 22, (R)-N-(1-cyclohexylethyl)-5,6-dihydroxy-2-(quinolin-2-yl)pyrimidine-4-carboxamide]: the IC50 in series [1] (setting [4]) is 450 nM. The “Proliferation assay HELA TD50” value in series [2] is 2.8446 µM. For the same molecule, in series [3], the “Proliferation assay PBMC TD50” value worked out at 8.05 µM.
The corresponding values for `CC1CCC(NC(=O)c2nc(-c3ccccn3)nc(O)c2O)CC1` (stereo not drawn) [Compound 56, 5,6-dihydroxy-N-(4-methylcyclohexyl)-2-(pyridin-2-yl)pyrimidine-4-carboxamide] are 341 nM, 3.2039 µM and 4.6 µM.
The corresponding values for `O=C(OCC1CCCCC1)c1nc(-c2ccccn2)nc(O)c1O` [Compound 2, cyclohexylmethyl 5,6-dihydroxy-2-(pyridin-2-yl)pyrimidine-4-carboxylate] are 1780 nM, over 50 µM and 6 µM.
The corresponding values for `O=C(OCCCC1CCCCC1)c1nc(-c2ccccn2)nc(O)c1O` [Compound 14, 3-cyclohexylpropyl 5,6-dihydroxy-2-(pyridin-2-yl)pyrimidine-4-carboxylate] are 6830 nM, over 50 µM and 5.6 µM.
For the molecule `Cc1cccnc1-c1nc(O)c(O)c(C(=O)OCC2CCCCC2)n1` [Compound 10, cyclohexylmethyl 5,6-dihydroxy-2-(3-methylpyridin-2-yl)pyrimidine-4-carboxylate], the half-inhibitory concentration (IC50) in series [1] (setting [4]) amounted to 1400 nM. In series [2], the “Proliferation assay HELA TD50” value is over 50 µM. Besides, in series [3], the “Proliferation assay PBMC TD50” value turned out to be 8.1 µM.
The corresponding values for `Cc1ccnc(-c2nc(O)c(O)c(C(=O)N[C@@H](C)C3CCCCC3)n2)c1` [Compound 79, (S)-N-(1-cyclohexylethyl)-5,6-dihydroxy-2-(4-methylpyridin-2-yl)pyrimidine-4-carboxamide] are 178 nM, 1.7233 µM and 2.3 µM.
In the case of `Cc1cccnc1-c1nc(O)c(O)c(C(=O)N[C@@H](C)C2CCCCC2)n1` [Compound 39, (S)-N-(1-cyclohexylethyl)-5,6-dihydroxy-2-(3-methylpyridin-2-yl)pyrimidine-4-carboxamide], in series [1] (setting [4]), the half-inhibitory concentration (IC50) amounted to 76.5 nM. Further, the “Proliferation assay HELA TD50” value in series [2] was 0.8788 µM. Besides, the “Proliferation assay PBMC TD50” value in series [3] is 2.3 µM.
The corresponding values for `C[C@H](NC(=O)c1nc(-c2ccccn2)nc(O)c1O)C1CCCCC1` [Compound 38, (S)-N-(1-cyclohexylethyl)-5,6-dihydroxy-2-(pyridin-2-yl)pyrimidine-4-carboxamide] are 154 nM, 0.5782 µM and 2.45 µM.
The corresponding values for `O=C(NCC1CC1)c1nc(-c2ccccn2)nc(O)c1O` [Compound 3, N-(cyclopropylmethyl)-5,6-dihydroxy-2-(pyridin-2-yl)pyrimidine-4-carboxamide] are 1410 nM, over 50 µM and 6 µM.
As for `C[C@H](NC(=O)c1nc(-c2nccc3ccccc23)nc(O)c1O)C1CCCCC1` [Compound 80, (S)-N-(1-cyclohexylethyl)-5,6-dihydroxy-2-(isoquinolin-1-yl)pyrimidine-4-carboxamide], the half-maximal inhibitory concentration (IC50) in series [1] (setting [4]) turned out to be 144 nM. Moreover, in series [2], the “Proliferation assay HELA TD50” value turned out to be 1.6112 µM. Further, the “Proliferation assay PBMC TD50” value in series [3] is 2 µM.
`C[C@H](CC1CCCCC1)NC(=O)c1nc(-c2ccccn2)nc(O)c1O` [Compound 64, (R)-N-(1-cyclohexylpropan-2-yl)-5,6-dihydroxy-2-(pyridin-2-yl)pyrimidine-4-carboxamide]: the IC50 in series [1] (setting [4]) came to 210 nM. Also, in series [2], the “Proliferation assay HELA TD50” value was 0.4717 µM. For the same molecule, the “Proliferation assay PBMC TD50” value in series [3] is 2.5 µM.
For the molecule `O=C(NCCC1CCCCC1)c1nc(-c2ccccn2)nc(O)c1O` [Compound 6, N-(2-cyclohexylethyl)-5,6-dihydroxy-2-(pyridin-2-yl)pyrimidine-4-carboxamide], the half-maximal inhibitory concentration (IC50) in series [1] (setting [4]) came to 2260 nM. Moreover, the “Proliferation assay HELA TD50” value in series [2] came to 4.2362 µM. Further, in series [3], the “Proliferation assay PBMC TD50” value is 10.48 µM.
The corresponding values for `C[C@@H](NC(=O)c1nc(-c2cc(CCN(C)C)ccn2)nc(O)c1O)C1CCCCC1` [Compound 92, (R)-N-(1-cyclohexylethyl)-2-(4-(2-(dimethylamino)ethyl)pyridin-2-yl)-5,6-dihydroxypyrimidine-4-carboxamide] are 1400 nM, 1.1684 µM and 2.02 µM.
The corresponding values for `C[C@@H](NC(=O)c1nc(-c2ccc(CNCc3ccccc3)cn2)nc(O)c1O)C1CCCCC1` [Compound 53, (R)-2-(5-((benzylamino)methyl)pyridin-2-yl)-N-(1-cyclohexylethyl)-5,6-dihydroxypyrimidine-4-carboxamide] are 530 nM, 2.8763 µM and 0.79 µM.
For `C[C@@H](NC(=O)c1nc(-c2cc(OCc3ccccc3)ccn2)nc(O)c1O)C1CCCCC1` [Compound 35, (R)-2-(4-(benzyloxy)pyridin-2-yl)-N-(1-cyclohexylethyl)-5,6-dihydroxypyrimidine-4-carboxamide], the half-inhibitory concentration (IC50) in series [1] (Human immunodeficiency virus 1, NL43, MT-2 cells 72 hours then TZM-bl cells two days, NL4-3, read-out: BiCycle IC50) worked out at 530 nM. In addition, in series [2], the “Proliferation assay HELA TD50” value worked out at 4.5896 µM. Further, the “Proliferation assay PBMC TD50” value in series [3] is 0.67 µM.
`C[C@@H](NC(=O)c1nc(-c2ccc(C(N)=O)cn2)nc(O)c1O)C1CCCCC1` [Compound 51, (R)-2-(5-carbamoylpyridin-2-yl)-N-(1-cyclohexylethyl)-5,6-dihydroxypyrimidine-4-carboxamide]: the 50% inhibitory concentration (IC50) in series [1] (setting [4]) was found to be 10600 nM. Besides, in series [2], the “Proliferation assay HELA TD50” value was 26.976 µM. In addition, the “Proliferation assay PBMC TD50” value in series [3] was determined as 8 µM.
The corresponding values for `Cc1cccnc1-c1nc(O)c(O)c(C(=O)NCC2CCCCC2)n1` [Compound 11, N-(cyclohexylmethyl)-5,6-dihydroxy-2-(3-methylpyridin-2-yl)pyrimidine-4-carboxamide] are 716 nM, 8.2839 µM and 8.7 µM.
With `COc1ccnc(-c2nc(O)c(O)c(C(=O)N[C@@H](C)C3CCCCC3)n2)c1` [Compound 69, N-[(1S)-1-cyclohexylethyl]-2-(4-methoxypyridin-2-yl)-5,6-bis(oxidanyl)pyrimidine-4-carboxamide], the half-maximal inhibitory concentration (IC50) in series [1] (setting [4]) was determined as 357 nM. Besides, in series [2], the “Proliferation assay HELA TD50” value turned out to be 3.8999 µM. The “Proliferation assay PBMC TD50” value in series [3] worked out at 7.11 µM.
The corresponding values for `C[C@H](NC(=O)c1nc(-c2cc(C(F)(F)F)ccn2)nc(O)c1O)C1CCCCC1` [Compound 52, (S)-N-(1-cyclohexylethyl)-5,6-dihydroxy-2-(4-(trifluoromethyl)pyridin-2-yl)pyrimidine-4-carboxamide] are 433 nM, 10.186 µM and 1.2 µM.
The corresponding values for `C[C@@H](NC(=O)c1nc(-c2cccc(N)n2)nc(O)c1O)C1CCCCC1` [Compound 45, (R)-2-(6-aminopyridin-2-yl)-N-(1-cyclohexylethyl)-5,6-dihydroxypyrimidine-4-carboxamide] are 1390 nM, 3.2272 µM and 3.36 µM.
